Experimental data: patent US20210255193A1, “LYSINE REACTIVE PROBES AND USES THEREOF” (The Scripps Research Institute, priority 2017, published 2021)

Assays:
[1] = target: T1, PSME3 Proteasome activator complex subunit 3 (Homo sapiens, UniProt P61289); assay: competitive isoTOP-ABPP; assay type: binding; settings: for isoTOP-ABPP ratio (R) at liganded lysine P61289_K12 / isoTOP-ABPP ratio (R) at liganded lysine P61289_K237: 50 uM, in vitro, sol, 231
T1 construct: isoTOP-ABPP experiments performed in cell lysates (in vitro); endogenous in cells; host or cells: soluble proteome of human cancer cell lines (MDA-MB-231, Ramos, Jurkat)
T1 sequence (P61289 whole entry, one chain of several): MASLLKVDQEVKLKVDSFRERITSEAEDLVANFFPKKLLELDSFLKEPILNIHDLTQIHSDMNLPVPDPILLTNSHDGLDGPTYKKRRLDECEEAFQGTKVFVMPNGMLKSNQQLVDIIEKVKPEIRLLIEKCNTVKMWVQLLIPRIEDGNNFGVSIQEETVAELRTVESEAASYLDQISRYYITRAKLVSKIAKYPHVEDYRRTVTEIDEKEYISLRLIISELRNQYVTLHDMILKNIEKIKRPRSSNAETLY
Description: (§1) In vitro covalent fragment treatment for isoTOP-ABPP. All compounds were made up as solutions in DMSO (100×) and were used at a final concentration of 50 μM for activated esters and 100 μM for guanidinylating agents. For each profiling sample, 0.5 ml of lysate was treated with 5 μl of the 100× compound stock solution or 5 μl of DMSO. Samples were treated with activated esters for
(§2) STP-alkyne labeling and click chemistry. For concentration-dependent reactivity measurements by isoTOP-ABPP, 0.5 ml proteome aliquots were treated at ambient temperature with 1 mM STP-alkyne 1 (5 μl of 100 mM stock in DMSO) and 0.1 mM STP alkyne 1 (5 μl of 10 mM stock in DMSO), respectively. For competitive isoTOP-ABPP, after in vitro fragment treatment (detailed above), the samples were labeled for 1 h at ambient temperature with 0.1 mM STP-alkyne 1 (5 μl of 10 mM stock in DMSO). Samples were conjugated by copper-mediated azide-alkyne cycloaddition (CuAAC) to either the light (1 mM STP-alkyne or fragment treated) or heavy (0.1 mM STP-alkyne or DMSO treated) TEV tags (10 μl of 5 mM stocks in DMSO, final concentration=100 μM) using tris(2-carboxyethyl)phosphine hydrochloride
(§3) R value calculation and processing. The ratios of light and heavy MS1 peaks for each unique peptide were quantified with a CIMAGE software using default parameters (3 MS1 acquisitions per peak and signal to noise threshold set to 2.5). For reactivity measurements by isoTOP-ABPP, the R value was calculated from the ratio of MS1 peak areas, comparing the 1 mM STP alkyne sample (light TEV tag) with the 0.1 mM STP alkyne sample (heavy TEV tag). For competitive isoTOP-ABPP, the R value was calculated from the ratio of MS1 peak areas, comparing the DMSO treated sample (heavy TEV tag) with the compound treated sample (light TEV tag). […] Ratios for unique peptide entries are calculated for each experiment; overlapping peptides with the same modified lysine (for example, different charge states, MudPIT chromatographic steps or tryptic termini) are grouped together and the median ratio is reported as the final ratio (R). The peptide ratios reported by CIMAGE were further filtered to ensure the removal or correction of low-quality ratios in each individual data set. The quality filters applied were the following: removal of half tryptic peptides; for ratios with high standard deviations from the median (90% of the median or above) the lowest ratio was taken instead of the median; removal of peptides with R=20 and only a single MS2 event triggered during the elution of the parent ion; manual annotation of all the peptides with ratios of 20, removing any peptides with low quality elution profiles that remained after the previous curation steps (only done for competitive isoTOP-ABPP).
(§4) Cross-data processing for fragment screening. For compound treated samples, biological replicates of the same condition were averaged, if the standard deviation was below 60% of the mean; otherwise, for lysines with at least one R value <4 for a particular compound, the lowest value of the ratio set was taken. For lysines, where all R values for a particular compound were ≥4, the average was reported. For peptides containing several possible modified lysines, the lysine with the highest number of quantification events was used for analysis and the remaining, redundant peptides were reported as alternative modification sites. Peptides included in the aggregate dataset (those used for further bioinformatics and statistical analyses) were required to have been quantified in 2 experiments for competitive isoTOP-ABPP. Lysines were categorized as liganded, if they had at least one ratio R≥4 (hit fragments). For liganded lysines with R=20 for all liganding events, lysines were required to have been quantified with R=20 in two separate experiments and were further required to have been quantified with R<20 in one additional experiment.

HK1 Hexokinase-1 = target: T2, HK1 Hexokinase-1 (Homo sapiens, UniProt P19367); assay: competitive isoTOP-ABPP; assay type: binding; settings: for isoTOP-ABPP ratio (R) at liganded lysine P19367_K510: 50 uM, in vitro, sol, 231
T2 construct: isoTOP-ABPP experiments performed in cell lysates (in vitro); endogenous in cells; host or cells: soluble proteome of human cancer cell lines (MDA-MB-231; Ramos and Jurkat also prepared)
T2 sequence (P19367 1-917): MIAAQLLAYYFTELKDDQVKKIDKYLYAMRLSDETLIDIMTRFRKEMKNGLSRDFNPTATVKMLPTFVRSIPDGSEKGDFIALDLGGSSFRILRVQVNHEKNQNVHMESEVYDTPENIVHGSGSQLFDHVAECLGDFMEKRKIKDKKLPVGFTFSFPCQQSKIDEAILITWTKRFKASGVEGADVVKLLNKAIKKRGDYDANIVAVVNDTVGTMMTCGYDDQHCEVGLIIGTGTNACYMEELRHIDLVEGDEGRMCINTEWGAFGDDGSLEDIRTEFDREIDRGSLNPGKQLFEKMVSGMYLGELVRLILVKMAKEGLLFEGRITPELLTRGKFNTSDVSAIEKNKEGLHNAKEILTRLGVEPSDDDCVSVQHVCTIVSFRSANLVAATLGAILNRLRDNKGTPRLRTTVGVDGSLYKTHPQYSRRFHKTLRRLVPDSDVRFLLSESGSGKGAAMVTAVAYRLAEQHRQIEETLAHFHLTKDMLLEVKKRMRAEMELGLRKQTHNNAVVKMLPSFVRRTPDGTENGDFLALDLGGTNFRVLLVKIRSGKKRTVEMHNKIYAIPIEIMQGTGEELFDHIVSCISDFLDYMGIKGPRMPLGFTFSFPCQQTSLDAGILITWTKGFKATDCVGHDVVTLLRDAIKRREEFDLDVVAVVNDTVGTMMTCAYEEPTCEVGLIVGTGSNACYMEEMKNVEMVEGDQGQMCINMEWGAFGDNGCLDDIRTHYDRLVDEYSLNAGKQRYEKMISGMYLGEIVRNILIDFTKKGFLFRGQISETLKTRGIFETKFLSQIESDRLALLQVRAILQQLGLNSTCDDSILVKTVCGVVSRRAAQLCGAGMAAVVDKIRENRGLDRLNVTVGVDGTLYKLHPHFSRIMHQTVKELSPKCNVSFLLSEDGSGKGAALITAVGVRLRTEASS
Description: as §1, §2, §3, §4

Row | Structure (SMILES) | isoTOP-ABPP ratio (R) at liganded lysine P61289_K12 [1] | isoTOP-ABPP ratio (R) at liganded lysine P19367_K510 (HK1 Hexokinase-1) | isoTOP-ABPP ratio (R) at liganded lysine P61289_K237 [1] | isoTOP-ABPP ratio, lysine P61289_K12 ([1]; 50 uM_231_sol_in vitro) | isoTOP-ABPP ratio, lysine P61289_K237 ([1]; 50 uM_231_sol_in vitro) | isoTOP-ABPP ratio, lysine P19367_K510 (HK1 Hexokinase-1; 50 uM_231_sol_in vitro) | other results
1 | O=C(CC12CC3CC(CC(C3)C1)C2)Oc1ccc([N+](=O)[O-])cc1[N+](=O)[O-] [fragment 38, 2,4-Dinitrophenyl 2-(adamantan-1-yl)acetate] | 1.9 | 1.7 |  |  |  |  | 
2 | O=C(Oc1ccc([N+](=O)[O-])cc1[N+](=O)[O-])c1ccc(Oc2ccccc2)cc1 [fragment 39, 2,4-Dinitrophenyl 4-phenoxybenzoate] | 0.9 | 0.9 | 0.9 |  |  |  | 
3 | CC(C)(C)OC(=O)NCCCC(=O)Oc1ccc([N+](=O)[O-])cc1[N+](=O)[O-] [fragment 41, 2,4-Dinitrophenyl 4-((tert-butoxycarbonyl)amino)butanoate] | 3.5 | 12.6 | 2.2 |  |  |  | 
4 | O=C(Oc1ccc([N+](=O)[O-])cc1[N+](=O)[O-])C(c1ccccc1)(c1ccccc1)c1ccccc1 [fragment 42, 2,4-Dinitrophenyl 2,2,2-triphenylacetate] | 0.9 | 0.8 | 0.9 |  |  |  | 
5 | O=C(CCc1ccc2c(c1)OCO2)Oc1ccc([N+](=O)[O-])cc1[N+](=O)[O-] [fragment 45, 2,4-Dinitrophenyl 3-(benzo[d][1,3]dioxol-5-yl)propanoate] |  |  |  | 2.0 | 1.6 | 5.3 | 
6 | O=C(ON1C(=O)CCC1=O)c1cc(C(F)(F)F)cc(C(F)(F)F)c1 [fragment 46, 3,5-Bis(trifluoromethyl)benzoic acid NHS ester] |  |  |  | 0.7 | 0.9 | 1.0 | 
7 | O=C(Oc1c(F)c(F)c(C(F)(F)F)c(F)c1F)c1cc(C(F)(F)F)cc(C(F)(F)F)c1 [fragment 47, 2,3,5,6-Tetrafluoro-4-(trifluoromethyl)phenyl 3,5-bis(trifluoromethyl)benzoate] |  |  |  | 1.1 | 0.9 | 0.9 | 
8 | COC(=O)NC(=NC(=O)OCC1c2ccccc2-c2ccccc21)n1cccn1 [fragment 49, N-Methoxycarbonyl-N′-9-fluorenylmethoxycarbonyl-pyrazole-1-carboxamidine] |  |  |  |  |  |  | isoTOP-ABPP ratio, lysine P61289_K12 ([1]; 100 uM_231_sol_in vitro): 0.8; isoTOP-ABPP ratio, lysine P61289_K237 ([1]; 100 uM_231_sol_in vitro): 0.8; isoTOP-ABPP ratio, lysine P19367_K510 (HK1 Hexokinase-1; 100 uM_231_sol_in vitro): 1.1
9 | CC(C)(C)OC(=O)N=C(NC(=O)OC(C)(C)C)n1cccn1 [fragment 50, reference compound] |  |  |  |  |  |  | isoTOP-ABPP ratio, lysine P61289_K12 ([1]; 100 uM_231_sol_in vitro): 0.7; isoTOP-ABPP ratio, lysine P61289_K237 ([1]; 100 uM_231_sol_in vitro): 0.9; isoTOP-ABPP ratio, lysine P19367_K510 (HK1 Hexokinase-1; 100 uM_231_sol_in vitro): 1.0
10 | NC(=O)c1cc(C(F)(F)F)cc(C(F)(F)F)c1 [fragment 51, reference compound] |  |  |  |  | 0.7 | 1.0 | 
